Source: the Kinase Knowledgebase extract (Sharma et al. 2016)

Tests used:
[1] = target: PIK3CA (human) (UniProt P42336); assay: Assessment of PIK3CA Kinase Activity in NZB5 Cells
[2] = target: PIK3CA (human) (UniProt P42336); assay: Assessment of PIK3CA Kinase Activity in NZOV9 Cells

Sequence of PIK3CA (human) (P42336 whole entry, looked up): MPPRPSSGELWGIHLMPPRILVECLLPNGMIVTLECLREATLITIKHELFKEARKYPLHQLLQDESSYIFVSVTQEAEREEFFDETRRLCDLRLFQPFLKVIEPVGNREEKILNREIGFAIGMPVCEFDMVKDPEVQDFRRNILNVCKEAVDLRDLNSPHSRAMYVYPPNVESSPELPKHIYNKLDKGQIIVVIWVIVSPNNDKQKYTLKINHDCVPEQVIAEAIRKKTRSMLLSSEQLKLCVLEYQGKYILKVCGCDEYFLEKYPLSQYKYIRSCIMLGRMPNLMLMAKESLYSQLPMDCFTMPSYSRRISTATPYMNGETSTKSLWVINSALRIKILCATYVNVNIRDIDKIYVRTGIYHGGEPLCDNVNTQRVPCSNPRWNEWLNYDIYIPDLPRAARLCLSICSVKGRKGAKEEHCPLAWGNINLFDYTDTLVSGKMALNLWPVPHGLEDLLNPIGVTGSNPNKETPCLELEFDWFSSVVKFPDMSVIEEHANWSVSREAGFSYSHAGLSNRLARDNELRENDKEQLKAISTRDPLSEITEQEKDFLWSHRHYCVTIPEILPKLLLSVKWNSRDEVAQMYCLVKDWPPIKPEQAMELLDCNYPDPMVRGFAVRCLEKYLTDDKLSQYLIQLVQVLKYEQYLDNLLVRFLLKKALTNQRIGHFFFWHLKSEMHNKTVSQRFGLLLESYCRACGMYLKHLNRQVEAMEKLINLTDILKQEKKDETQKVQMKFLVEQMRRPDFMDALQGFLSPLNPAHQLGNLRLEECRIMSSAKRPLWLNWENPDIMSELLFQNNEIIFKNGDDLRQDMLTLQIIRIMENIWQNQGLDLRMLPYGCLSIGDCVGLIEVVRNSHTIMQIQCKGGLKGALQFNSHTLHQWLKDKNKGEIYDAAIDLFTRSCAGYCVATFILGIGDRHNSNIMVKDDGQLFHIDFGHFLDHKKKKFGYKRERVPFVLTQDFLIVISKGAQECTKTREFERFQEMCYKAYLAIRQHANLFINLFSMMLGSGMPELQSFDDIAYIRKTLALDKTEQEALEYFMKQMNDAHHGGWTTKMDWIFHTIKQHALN

Row | SMILES | IC50 [1] | IC50 [2]
1 | Cc1ccc(F)cc1S(=O)(=O)N(C)N=Cc1cnn2ccc(C#N)cc12 | > 20 µM | –
2 | Cc1c([N+](=O)[O-])cccc1S(=O)(=O)N(C)N=Cc1cnn2ccc(C#N)cc12 | > 20 µM | > 20 µM
3 | CN(C)c1ccc([N+](=O)[O-])cc1S(=O)(=O)N(C)N=Cc1cnn2ccc(C#N)cc12 | – | 0.1 µM
4 | Cc1ccc(C(=O)O)cc1S(=O)(=O)N(C)N=Cc1cnn2ccc(C#N)cc12 | > 20 µM | > 20 µM
5 | Cc1ccccc1S(=O)(=O)N(C)N=Cc1cnn2ccc(C#N)cc12 | > 20 µM | –
6 | Cc1ccc([N+](=O)[O-])cc1C(=O)N(C)N=Cc1cnn2ccc(C#N)cc12 | > 20 µM | > 20 µM
7 | CC(=O)Nc1ccc(C)c(S(=O)(=O)N(C)N=Cc2cnn3ccc(C#N)cc23)c1 | > 20 µM | > 20 µM
8 | Cc1cc([N+](=O)[O-])ccc1S(=O)(=O)N(C)N=Cc1cnn2ccc(C#N)cc12 | > 20 µM | > 20 µM
